In article PMC2346451 (PLoS ONE, 2008):

Columns and labels:
[1] = biological target: rat TRPM8 (rTRPM8) (Rattus norvegicus, UniProt Q8R455); assay: Whole-cell patch clamp of rat TRPM8 expressed in HEK-293T cells; assay type: cell-based
Protocol: (§1) Transformed human embryonic kidney-293 (HEK-293T) cells were grown in Dulbecco's modified Eagle's medium (DMEM)+F-12 supplemented with 10% fetal calf serum, and 1% penicillin/streptomycin in 5% CO2 at 37°C. Cells grown to 90% confluence in 35 mm Petri dishes were transiently transfected with plasmid DNA encoding a TRP channel construct (1 µg). Rat TRPV1 (rTRPV1) was cloned into an enhanced green fluorescent protein-containing vector (pTracer-CMV2; Invitrogen, Carlsbad, CA). Chicken TRPV1 (cTRPV1), the chicken rat TRPV1 chimera (crcTRPV1), rat TRPV2 (rTRPV2), mouse TRPV3 (mTRPV3), mouse TRPV4 (mTRPV4), rat TRPM8 (rTRPM8), and rat TRPA1 (rTRPA1), were cloned into pcDNA3 and co-transfected with enhanced green fluorescent protein (0.1 µg) to follow expression. The cTRPV1 and crcTRPV1 clones were kindly provided by Dr. David Julius. Recordings were carried out 24–36 hours after transfection. Cells were split via trypsin EDTA, plated on glass coverslips at 5–10% confluence, and used 2–3 hours later.
(§2) Electrophysiological experiments were performed using the whole-cell patch-clamp technique at room temperature. Modified Ringer's solution with low chloride and nominal calcium contained (in mM): 130 sodium hydroxide, 5 potassium chloride, 1 magnesium chloride, 10 sodium 4-(2-hydroxyethyl)-1-piperazineethanesulfonic acid, 10 2-(N-morpholino)ethanesulfonic acid, and 20 glucose (pH 7.4; 310 milli-osmolar). […] 2 mM calcium chloride was included in the external solution where noted. To activate TRPV1, the modified Ringer's solution was made at pH 5 (low pH solution) and the chloride concentration was kept to a minimum to prevent contamination of the TRPV1 currents with acid-activated chloride currents. For recordings from heterologously expressing cells, the internal pipette solution contained (in mM): 125 cesium-Methanesulfonate, 10 cesium (1.2-bis(o-aminophenoxy)ethane-N,N,N',N'-tetraacetic acid, 8 sodium chloride, 4 magnesium adenosine triphosphate, and 10 HEPES (pH 7.2; 290 mOSM; nominal free calcium concentrations). For TRPA1 and dorsal root ganglion recordings, the internal pipette solution contained (in mM): 110 cesium-Methanesulfonate, 0.5 cesium4BAPTA, 8 sodium chloride, 0.2 calcium chloride, 4 magnesium-ATP, 4 sodium-GTP, and 10 4-(2-hydroxyethyl)-1-piperazineethanesulfonic acid (pH 7.2; 290 mOSM; 100 nM free calcium internal). MaxChelator was used to calculate the free calcium concentration (http://www.stanford.edu/cpatton/maxc.html).
(§3) Recordings were obtained using an Axopatch 200B amplifier, Digidata 1322A analog-to-digital converter, and pClamp 8.01 software (Molecular Devices, Union City, CA). Data were low-pass filtered at 2 kHz and digitized at 5 kHz. Borosilicate glass pipettes (World Precision Instruments, Sarasota, FL) were typically 3 MΩ pipette resistance after fire polishing. Cell capacitance was measured for each cell, and access resistance compensated to ∼80%. Recordings were begun ∼5 minutes after initial rupture to ensure initial steady state conditions. Current-voltage (I-V) relations were obtained using a ramp protocol. Voltage ramps (400 ms) from −100 to +40 or +100 mV were applied every 1–2 seconds and the holding potential was either −70 mV or 0 mV (see Figure Legends). A 40 ms step was added at the beginning and end of the ramp (i.e. at −100 mV, +40 mV or +100 mV). Liquid junction potentials were not corrected.
(§4) The dose response curves were fit with the Hill equation, where [drawing 8] and [A] is the concentration of agonist or blocker, N is the Hill coefficient, and KD is the [A] for Imeasured/Imax = 0.5. The term apparent dissociation constant is used in place of the half concentration of excitation and inhibition. […] Averaged data are presented as mean±standard error (S.E.) throughout. Statistical analysis included paired and unpaired Student's t-test comparisons of the data; p values are reported in the text.

[2] = biological target: rat TRPA1 (rTRPA1) (Rattus norvegicus, UniProt Q6RI86); assay: Whole-cell patch clamp of rat TRPA1 expressed in HEK-293T cells; assay type: cell-based
Protocol: as §1, §2, §3, §4

[3] = biological target: rat TRPV1 (rTRPV1) (Rattus norvegicus, UniProt O35433); assay: Whole-cell patch clamp of rat TRPV1 expressed in HEK-293T cells; assay type: cell-based; conditions: for Activation of TRPV1 current: analyzed at −40 mV and +40 mV; for Decrease of pH 5-evoked TRPV1 current: 300 µM, −40 mV
Protocol: as §1, §2, §3, §4

[4] = biological target: T1, mouse TRPV3 (mTRPV3) (Mus musculus, UniProt Q8K424); assay: Whole-cell patch clamp of mouse TRPV3 expressed in HEK-293T cells; assay type: cell-based
T1 sequence (Q8K424 1-791): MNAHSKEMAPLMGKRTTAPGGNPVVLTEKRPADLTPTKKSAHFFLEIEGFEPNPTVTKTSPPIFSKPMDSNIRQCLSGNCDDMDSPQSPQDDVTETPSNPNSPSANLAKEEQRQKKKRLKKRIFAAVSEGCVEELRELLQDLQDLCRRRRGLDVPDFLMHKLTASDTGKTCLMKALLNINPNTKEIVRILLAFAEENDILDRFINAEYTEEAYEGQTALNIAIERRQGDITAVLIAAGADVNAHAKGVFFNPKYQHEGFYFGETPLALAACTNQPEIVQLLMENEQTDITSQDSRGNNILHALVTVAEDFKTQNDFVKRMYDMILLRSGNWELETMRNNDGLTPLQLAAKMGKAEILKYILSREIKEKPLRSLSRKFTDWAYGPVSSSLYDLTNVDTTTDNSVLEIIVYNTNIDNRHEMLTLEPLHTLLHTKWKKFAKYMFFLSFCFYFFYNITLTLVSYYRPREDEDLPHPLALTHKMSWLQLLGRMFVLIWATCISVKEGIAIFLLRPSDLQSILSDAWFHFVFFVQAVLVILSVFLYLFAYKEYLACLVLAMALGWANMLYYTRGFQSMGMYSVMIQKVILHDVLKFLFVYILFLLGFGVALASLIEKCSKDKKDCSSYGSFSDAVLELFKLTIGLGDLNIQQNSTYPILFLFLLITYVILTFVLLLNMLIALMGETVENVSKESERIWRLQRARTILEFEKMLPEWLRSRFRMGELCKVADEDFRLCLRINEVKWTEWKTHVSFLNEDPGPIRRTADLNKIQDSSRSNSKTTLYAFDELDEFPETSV
Protocol: as §1, §2, §3, §4

[5] = tested on: dorsal root ganglion neurons; assay: Whole-cell patch clamp of acutely isolated dorsal root ganglion neurons; assay type: cell-based, rat
Description: Dorsal root ganglion neurons from all spinal levels were removed from postnatal day 12 to 20 Sprague Dawley rats and the nerve roots trimmed. Calcium- and magnesium-free (CMF) Hank's solution contained (in mM): 136.9 sodium chloride, 5.4 potassium chloride, 0.34 dibasic sodium orthophosphate, 0.44 monopotassium phosphate, 5.6 glucose, 5 4-(2-hydroxyethyl)-1-piperazineethanesulfonic acid, 0.005% phenol red, pH 7.4. CMF Hank's was used throughout the isolation and enzymatic treatments. The isolated ganglia were treated for 20 minutes at 37°C with 20 U/ml of papain (Worthington Biochemical, Lakewood, NJ) and 5 mM cysteine. The ganglia were then transferred to CMF Hank's with 3 mg/ml collagenase (type I; Worthington) and 4 mg/ml dispase (neutral type II; Roche Applied Science, Indianapolis, IN) for 20 minutes at 37°C. Individual neurons were dispersed by trituration through a fire-polished glass Pasteur pipette in 3 ml of media containing DMEM, 5% horse serum, 10% fetal bovine serum, 1% penicillin/streptomycin, and 100 ng/ml Nerve Growth Factor (7S subunit; Invitrogen). The neurons were preplated in tissue culture-treated Petri dishes for 1 hour when used for electrophysiology (3 hours for calcium imaging), and then plated on poly-L-lysine (1 mg/ml)-coated glass coverslips. Dorsal root ganglion neurons were allowed to settle for 1–2 hours at 37°C before patching or imaging over the next 6 hours.
as §2, §3

[6] = after citral inhibition of TRPV1

Chain of rat TRPV1 (rTRPV1) (O35433 whole entry): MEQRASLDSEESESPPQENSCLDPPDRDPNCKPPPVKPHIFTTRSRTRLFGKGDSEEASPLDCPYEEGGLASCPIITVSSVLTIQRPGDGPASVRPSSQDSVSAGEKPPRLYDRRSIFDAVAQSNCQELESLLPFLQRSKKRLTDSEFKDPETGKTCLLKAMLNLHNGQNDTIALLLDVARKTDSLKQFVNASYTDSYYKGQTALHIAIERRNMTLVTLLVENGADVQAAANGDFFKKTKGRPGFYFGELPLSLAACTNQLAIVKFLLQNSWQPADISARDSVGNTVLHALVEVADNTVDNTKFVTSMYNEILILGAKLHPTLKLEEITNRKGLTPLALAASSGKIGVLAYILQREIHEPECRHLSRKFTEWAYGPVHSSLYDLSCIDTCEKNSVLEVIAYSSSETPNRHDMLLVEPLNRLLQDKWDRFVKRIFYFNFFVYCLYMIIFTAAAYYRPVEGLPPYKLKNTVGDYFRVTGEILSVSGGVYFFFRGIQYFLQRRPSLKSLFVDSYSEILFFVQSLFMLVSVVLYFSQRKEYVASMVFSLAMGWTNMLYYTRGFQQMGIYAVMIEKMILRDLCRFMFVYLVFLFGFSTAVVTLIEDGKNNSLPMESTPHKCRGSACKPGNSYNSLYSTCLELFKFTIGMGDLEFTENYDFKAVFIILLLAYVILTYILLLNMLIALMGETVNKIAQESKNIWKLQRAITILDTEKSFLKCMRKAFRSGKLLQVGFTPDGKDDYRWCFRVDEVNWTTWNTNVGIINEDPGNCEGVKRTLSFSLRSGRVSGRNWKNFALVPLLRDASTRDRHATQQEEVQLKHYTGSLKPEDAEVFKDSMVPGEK
Chain of rat TRPA1 (rTRPA1) (Q6RI86 whole entry): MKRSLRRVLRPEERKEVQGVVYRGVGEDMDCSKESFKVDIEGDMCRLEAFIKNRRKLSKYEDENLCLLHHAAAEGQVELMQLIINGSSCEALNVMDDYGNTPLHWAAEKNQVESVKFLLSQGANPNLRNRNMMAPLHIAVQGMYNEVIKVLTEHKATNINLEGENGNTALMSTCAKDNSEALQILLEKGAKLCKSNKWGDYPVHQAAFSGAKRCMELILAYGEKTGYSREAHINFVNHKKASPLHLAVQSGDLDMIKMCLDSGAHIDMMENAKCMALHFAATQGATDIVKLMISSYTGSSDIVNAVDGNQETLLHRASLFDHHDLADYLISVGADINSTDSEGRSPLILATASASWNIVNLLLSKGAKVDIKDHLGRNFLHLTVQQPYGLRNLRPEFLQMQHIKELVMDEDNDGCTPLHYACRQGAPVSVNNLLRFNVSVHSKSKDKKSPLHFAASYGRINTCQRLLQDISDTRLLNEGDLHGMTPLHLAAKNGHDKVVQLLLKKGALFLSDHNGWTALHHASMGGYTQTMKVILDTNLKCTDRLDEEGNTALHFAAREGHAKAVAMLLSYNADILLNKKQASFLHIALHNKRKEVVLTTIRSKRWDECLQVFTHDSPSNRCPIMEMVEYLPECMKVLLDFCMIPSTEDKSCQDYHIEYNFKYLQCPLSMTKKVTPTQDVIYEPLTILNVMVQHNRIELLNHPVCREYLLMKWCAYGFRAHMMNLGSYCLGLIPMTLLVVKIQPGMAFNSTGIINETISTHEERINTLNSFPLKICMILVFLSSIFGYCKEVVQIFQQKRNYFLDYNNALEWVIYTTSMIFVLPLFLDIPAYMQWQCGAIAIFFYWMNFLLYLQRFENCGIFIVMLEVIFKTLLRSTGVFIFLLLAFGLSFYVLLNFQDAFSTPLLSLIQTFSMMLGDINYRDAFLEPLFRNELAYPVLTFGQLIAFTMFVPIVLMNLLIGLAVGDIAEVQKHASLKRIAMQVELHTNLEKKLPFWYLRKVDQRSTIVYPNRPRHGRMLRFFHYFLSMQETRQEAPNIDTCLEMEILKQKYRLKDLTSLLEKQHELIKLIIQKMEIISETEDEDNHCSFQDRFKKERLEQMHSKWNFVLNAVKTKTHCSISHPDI
Chain of rat TRPM8 (rTRPM8) (Q8R455 whole entry): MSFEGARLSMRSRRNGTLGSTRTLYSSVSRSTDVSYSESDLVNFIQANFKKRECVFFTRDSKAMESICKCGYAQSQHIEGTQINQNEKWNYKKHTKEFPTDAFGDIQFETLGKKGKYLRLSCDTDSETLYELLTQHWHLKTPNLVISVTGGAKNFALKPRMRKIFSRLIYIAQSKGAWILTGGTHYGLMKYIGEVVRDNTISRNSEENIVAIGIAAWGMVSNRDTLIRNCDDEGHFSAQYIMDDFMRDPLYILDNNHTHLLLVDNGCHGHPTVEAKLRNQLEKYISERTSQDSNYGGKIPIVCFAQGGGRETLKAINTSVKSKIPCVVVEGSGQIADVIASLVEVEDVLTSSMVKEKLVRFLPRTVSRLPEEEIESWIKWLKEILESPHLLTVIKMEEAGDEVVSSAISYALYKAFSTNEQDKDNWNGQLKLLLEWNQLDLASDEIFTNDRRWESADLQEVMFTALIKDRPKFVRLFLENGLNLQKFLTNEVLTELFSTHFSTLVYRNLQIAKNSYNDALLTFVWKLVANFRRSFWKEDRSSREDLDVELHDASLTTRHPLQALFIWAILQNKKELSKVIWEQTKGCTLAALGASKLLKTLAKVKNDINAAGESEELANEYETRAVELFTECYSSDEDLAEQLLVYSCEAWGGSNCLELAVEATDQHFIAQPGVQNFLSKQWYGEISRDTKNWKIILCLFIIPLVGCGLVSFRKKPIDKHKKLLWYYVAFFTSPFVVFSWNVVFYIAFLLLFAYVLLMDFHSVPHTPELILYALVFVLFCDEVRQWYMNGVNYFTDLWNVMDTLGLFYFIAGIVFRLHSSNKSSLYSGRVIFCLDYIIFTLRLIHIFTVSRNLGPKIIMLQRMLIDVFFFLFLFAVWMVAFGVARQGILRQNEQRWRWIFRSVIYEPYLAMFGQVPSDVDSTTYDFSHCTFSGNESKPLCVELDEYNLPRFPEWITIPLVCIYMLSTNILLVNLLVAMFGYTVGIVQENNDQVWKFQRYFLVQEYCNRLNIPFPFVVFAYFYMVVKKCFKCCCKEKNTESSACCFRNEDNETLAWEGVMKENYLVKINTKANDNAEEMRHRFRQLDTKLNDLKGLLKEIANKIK

SMILES	Activation of TRPM8 current [1]	Activation of TRPA1 current [2]	Activation of TRPV1 current [3]	Activation of TRPV3 current [4]	Decrease of pH 5-evoked TRPV1 current [3]	other results
CC(C)=CCC/C(C)=C/C=O [geranial]	weakly activated	weakly activated	weakly activated	weakly activated		
CC(C)=CCC/C(C)=C\CO [nerol]	weakly activated	weakly activated	weakly activated	weakly activated	50%	Increase of TRPA1 current on second application ([2]; 1 mM, −100 mV, n = 4): 2 fold; TRPV1 current recovered after washout ([3]; 1 mM, 5 minutes after washout, in 3 of 4 cells): < 1%; inhibition at 1000 µM ([3]; HEK-293T, pH 5, 1 mM, sustained after 5 minutes washout, read-out: Inhibition of pH 5-evoked TRPV1 current): 100%
NCCOB(c1ccccc1)c1ccccc1 [2-aminoethyldiphenyl borate, reference compound]						Potentiation of current by repeated application, representative neuron ([5]; +100 mV): 2.3 fold; Cells with evoked currents among cells in which TRPV1 was inhibited [5, 6]: 27 of 30; Increase of current in cells in which TRPV1 was inhibited [5, 6]: 3±0.4 fold; Potentiation of current by repetitive application ([5]; second responsive population (six of twelve neurons)): 1.7±0.3 fold
CC12CCC(CC1=O)C2(C)C (stereo not drawn) [camphor, reference compound]						Increase in outward current ([5]; second 2-aminoethyldiphenyl borate responsive population): 1.3 fold
CC(C)=CCC/C(C)=C/CO [geraniol]	weakly activated	weakly activated	weakly activated	weakly activated	45%	Block of inward TRPA1 current ([2]; 1 mM, −100 mV, n = 9): 70%
CC(C)=CCC/C(C)=C\C=O [neral]	weakly activated	weakly activated	weakly activated	weakly activated		
